Experimental data as given in PMC12221116, “Novel Quinazolinones Active against Multidrug‐Resistant Mycobacterium Tuberculosis: Synthesis, Antimicrobial Evaluation, and in Silico Exploration of Penicillin‐Binding Protein 1A as a Potential Target” (Chemmedchem, 2025).
Read-outs that look alike come from different tables or passages of the source.

Assays:
Mtb H37Rv = test: Microplate Alamar Blue assay, MIC; type: cell-based, Mycobacterium tuberculosis; details: Mycobacterium tuberculosis, H37RV
M. kansasii = test: Microplate Alamar Blue assay, MIC; type: cell-based, Mycobacterium kansasii; details: for MIC: Mycobacterium kansasii, read-out: Antimycobacterial Activity MIC M. kans.
M. smegmatis = test: Microdilution broth resazurin assay, MIC; type: cell-based, Mycolicibacterium smegmatis
Mtb H37Ra = test: Microdilution broth resazurin assay, MIC; type: cell-based, Mycobacterium tuberculosis
M. aurum = test: Microdilution broth resazurin assay, MIC; type: cell-based, Mycolicibacterium aurum
M. avium = test: Microdilution broth resazurin assay, MIC; type: cell-based, Mycobacterium avium
[1] = Microplate Alamar Blue assay, read-out: Antimycobacterial Activity MIC Mtb H37Rv
[2] = read-out: Antimycobacterial Activity MIC Mtb H37Rv, Table S5 matching pairs series A and B
[3] = Mycolicibacterium smegmatis; read-out: Antimycobacterial Activity MIC M. smeg.
[4] = Table S5 matching pairs series A and B
[5] = Mycobacterium tuberculosis, H37RA, read-out: Antimycobacterial Activity MIC Mtb H37Ra
[6] = Mycolicibacterium aurum; read-out: Antimycobacterial Activity MIC M. aurum
[7] = Mycobacterium avium; read-out: Antimycobacterial Activity MIC M. avium
[8] = Mycolicibacterium smegmatis, read-out: Antimycobacterial Activity MIC M. smeg.
[9] = Mycolicibacterium aurum, read-out: Antimycobacterial Activity MIC M. aurum
[10] = Mycobacterium avium, read-out: Antimycobacterial Activity MIC M. avium
[11] = Mycobacterium tuberculosis, H37RA; read-out: Antimycobacterial Activity MIC Mtb H37Ra

Cc1ccccc1Cn1c(C)nc2cc(Cl)ccc2c1=O [Compound 20]
≥ 250 mg/L: MIC (M. smegmatis; [3]) | Antimycobacterial Activity MIC M. smeg. (M. smegmatis; [4]) | MIC (Mtb H37Ra; [5]) | MIC (M. aurum; [6]) | Antimycobacterial Activity MIC M. aurum (M. aurum; [4]) | MIC (M. avium; [7]) | Antimycobacterial Activity MIC M. avium (M. avium; [4])
> 100 mg/L: MIC (Mtb H37Rv; [1]) | MIC (Mtb H37Rv; [2]) | MIC (M. kansasii)
≥250 mg/L: Antimycobacterial Activity MIC Mtb H37Ra (Mtb H37Ra)

Cc1nc2cc(Cl)ccc2c(=O)n1Cc1ccc(C(F)(F)F)cc1 [Compound 22]
> 100 mg/L: MIC (Mtb H37Rv; [1]) | MIC (Mtb H37Rv; [2])
≥ 500 mg/L: MIC (M. smegmatis; [3]) | Antimycobacterial Activity MIC M. smeg. (M. smegmatis; [4]) | MIC (M. aurum; [6]) | Antimycobacterial Activity MIC M. aurum (M. aurum; [4]) | MIC (M. avium; [7]) | Antimycobacterial Activity MIC M. avium (M. avium; [4])
31.25 mg/L: Antimycobacterial Activity MIC Mtb H37Ra (Mtb H37Ra)
31.2 mg/L: MIC (Mtb H37Ra; [5])
25 mg/L: MIC (M. kansasii) | Antimycobacterial Activity MIC M. kans. (M. kansasii; [4])

Cc1nc2cc(Cl)ccc2c(=O)n1Cc1ccc2ccccc2c1 [Compound 23]
> 100 mg/L: MIC (Mtb H37Rv; [1]) | MIC (Mtb H37Rv; [2]) | MIC (M. kansasii)
≥125 mg/L: Antimycobacterial Activity MIC M. smeg. (M. smegmatis) | Antimycobacterial Activity MIC Mtb H37Ra (Mtb H37Ra) | Antimycobacterial Activity MIC M. aurum (M. aurum) | Antimycobacterial Activity MIC M. avium (M. avium)
≥ 125 mg/L: MIC (M. smegmatis; [8]) | MIC (Mtb H37Ra; [5]) | MIC (M. aurum; [9]) | MIC (M. avium; [10])

Cc1nc2cc(Cl)ccc2c(=O)n1/N=C/c1ccccc1[N+](=O)[O-] [Compound 26]
> 25 mg/L: MIC (Mtb H37Rv; [1]) | MIC (M. kansasii)
≥ 62.5 mg/L: MIC (M. smegmatis; [8]) | MIC (Mtb H37Ra; [11]) | MIC (M. aurum; [9]) | MIC (M. avium; [10])

Cc1nc2cc(Cl)ccc2c(=O)n1/N=C/c1cccc([N+](=O)[O-])c1 [Compound 27]
≥ 62.5 mg/L: MIC (M. smegmatis; [8]) | MIC (Mtb H37Ra; [11]) | MIC (M. aurum; [9]) | MIC (M. avium; [10])
> 50 mg/L: MIC (Mtb H37Rv; [1]) | MIC (M. kansasii)

Cc1nc2cc(Cl)ccc2c(=O)n1/N=C/c1ccc([N+](=O)[O-])cc1 [Compound 28]
> 25 mg/L: MIC (Mtb H37Rv; [1]) | MIC (M. kansasii)
≥ 31.2 mg/L: MIC (M. smegmatis; [8]) | MIC (Mtb H37Ra; [11]) | MIC (M. aurum; [9]) | MIC (M. avium; [10])

Cc1nc2cc(Cl)ccc2c(=O)n1/N=C/c1ccccn1 [Compound 29]
≥ 31.2 mg/L: MIC (M. smegmatis; [8]) | MIC (Mtb H37Ra; [11]) | MIC (M. aurum; [9]) | MIC (M. avium; [10])
> 25 mg/L: MIC (Mtb H37Rv; [1]) | MIC (M. kansasii)

Cc1nc2cc(Cl)ccc2c(=O)n1/N=C/c1cccnc1 [Compound 30]
≥ 31.2 mg/L: MIC (M. smegmatis; [8]) | MIC (Mtb H37Ra; [11]) | MIC (M. aurum; [9]) | MIC (M. avium; [10])
> 25 mg/L: MIC (Mtb H37Rv; [1]) | MIC (M. kansasii)

Cc1nc2cc(Cl)ccc2c(=O)n1/N=C/c1ccncc1 [Compound 31]
> 25 mg/L: MIC (Mtb H37Rv; [1]) | MIC (M. kansasii)
≥ 31.2 mg/L: MIC (M. smegmatis; [8]) | MIC (Mtb H37Ra; [11]) | MIC (M. aurum; [9]) | MIC (M. avium; [10])

Cc1nc2cc(Cl)ccc2c(=O)n1/N=C/c1ccc(O)cc1O [Compound 33]
≥ 62.5 mg/L: MIC (M. smegmatis; [8]) | MIC (Mtb H37Ra; [11]) | MIC (M. aurum; [9]) | MIC (M. avium; [10])
> 100 mg/L: MIC (Mtb H37Rv; [1]) | MIC (M. kansasii)

COc1cc(/C=N/n2c(C)nc3cc(Cl)ccc3c2=O)ccc1O [Compound 34]
> 100 mg/L: MIC (Mtb H37Rv; [1]) | MIC (M. kansasii)
≥ 62.5 mg/L: MIC (M. smegmatis; [8]) | MIC (Mtb H37Ra; [11]) | MIC (M. aurum; [9]) | MIC (M. avium; [10])

Cc1nc2cc(Cl)ccc2c(=O)n1/N=C/c1ccccc1O [Compound 35]
≥ 31.2 mg/L: MIC (M. smegmatis; [8]) | MIC (Mtb H37Ra; [11]) | MIC (M. aurum; [9]) | MIC (M. avium; [10])
> 50 mg/L: MIC (Mtb H37Rv; [1]) | MIC (M. kansasii)

Cc1nc2cc(Cl)ccc2c(=O)n1/N=C/c1cccc(O)c1 [Compound 36]
> 100 mg/L: MIC (Mtb H37Rv; [1]) | MIC (M. kansasii)
≥ 62.5 mg/L: MIC (M. smegmatis; [8]) | MIC (Mtb H37Ra; [11]) | MIC (M. aurum; [9]) | MIC (M. avium; [10])

Cc1nc2cc(Cl)ccc2c(=O)n1/N=C/c1ccc(O)cc1 [Compound 37]
≥ 62.5 mg/L: MIC (M. smegmatis; [8]) | MIC (Mtb H37Ra; [11]) | MIC (M. aurum; [9]) | MIC (M. avium; [10])
> 50 mg/L: MIC (Mtb H37Rv; [1]) | MIC (M. kansasii)

COc1ccccc1/C=N/n1c(C)nc2cc(Cl)ccc2c1=O [Compound 38]
≥ 62.5 mg/L: MIC (M. smegmatis; [8]) | MIC (Mtb H37Ra; [11]) | MIC (M. aurum; [9]) | MIC (M. avium; [10])
> 25 mg/L: MIC (Mtb H37Rv; [1]) | MIC (M. kansasii)

COc1cccc(/C=N/n2c(C)nc3cc(Cl)ccc3c2=O)c1 [Compound 39]
> 50 mg/L: MIC (Mtb H37Rv; [1]) | MIC (M. kansasii)
≥ 62.5 mg/L: MIC (M. smegmatis; [8]) | MIC (Mtb H37Ra; [11]) | MIC (M. aurum; [9]) | MIC (M. avium; [10])

COc1ccc(/C=N/n2c(C)nc3cc(Cl)ccc3c2=O)cc1 [Compound 40]
> 50 mg/L: MIC (Mtb H37Rv; [1]) | MIC (M. kansasii)
≥ 15.6 mg/L: MIC (M. smegmatis; [8]) | MIC (Mtb H37Ra; [11]) | MIC (M. aurum; [9]) | MIC (M. avium; [10])

Cc1nc2cc(Cl)ccc2c(=O)n1/N=C/C=C/c1ccccc1 [Compound 41]
> 25 mg/L: MIC (Mtb H37Rv; [1]) | MIC (M. kansasii)
≥ 31.2 mg/L: MIC (M. smegmatis; [8]) | MIC (Mtb H37Ra; [11]) | MIC (M. aurum; [9]) | MIC (M. avium; [10])

Cc1nc2cc(Cl)ccc2c(=O)n1/N=C/c1ccccc1F [Compound 42]
≥ 31.2 mg/L: MIC (M. smegmatis; [8]) | MIC (Mtb H37Ra; [11]) | MIC (M. aurum; [9]) | MIC (M. avium; [10])
> 25 mg/L: MIC (Mtb H37Rv; [1]) | MIC (M. kansasii)

Cc1nc2cc(Cl)ccc2c(=O)n1/N=C/c1cccc(F)c1 [Compound 43]
> 25 mg/L: MIC (Mtb H37Rv; [1]) | MIC (M. kansasii)
≥ 62.5 mg/L: MIC (M. smegmatis; [8]) | MIC (Mtb H37Ra; [11]) | MIC (M. aurum; [9]) | MIC (M. avium; [10])

Cc1nc2cc(Cl)ccc2c(=O)n1/N=C/c1ccc(F)cc1 [Compound 44]
≥ 31.2 mg/L: MIC (M. smegmatis; [8]) | MIC (Mtb H37Ra; [11]) | MIC (M. aurum; [9]) | MIC (M. avium; [10])
> 25 mg/L: MIC (Mtb H37Rv; [1]) | MIC (M. kansasii)

Cc1nc2cc(Cl)ccc2c(=O)n1/N=C/c1ccc(N(C)C)cc1 [Compound 45]
> 25 mg/L: MIC (Mtb H37Rv; [1]) | MIC (M. kansasii)
≥ 15.6 mg/L: MIC (M. smegmatis; [8]) | MIC (Mtb H37Ra; [11]) | MIC (M. aurum; [9]) | MIC (M. avium; [10])

Cc1ccccc1/C=N/n1c(C)nc2cc(Cl)ccc2c1=O [Compound 46]
≥ 62.5 mg/L: MIC (M. smegmatis; [8]) | MIC (Mtb H37Ra; [11]) | MIC (M. aurum; [9]) | MIC (M. avium; [10])
> 25 mg/L: MIC (Mtb H37Rv; [1]) | MIC (M. kansasii)

Cc1cccc(/C=N/n2c(C)nc3cc(Cl)ccc3c2=O)c1 [Compound 47]
> 25 mg/L: MIC (Mtb H37Rv; [1]) | MIC (M. kansasii)
≥ 31.2 mg/L: MIC (M. smegmatis; [8]) | MIC (Mtb H37Ra; [11]) | MIC (M. aurum; [9]) | MIC (M. avium; [10])

Cc1ccc(/C=N/n2c(C)nc3cc(Cl)ccc3c2=O)cc1 [Compound 48]
> 25 mg/L: MIC (Mtb H37Rv; [1]) | MIC (M. kansasii)
≥ 31.2 mg/L: MIC (M. smegmatis; [8]) | MIC (Mtb H37Ra; [11]) | MIC (M. aurum; [9]) | MIC (M. avium; [10])

Cc1nc2cc(Cl)ccc2c(=O)n1/N=C/c1ccccc1Cl [Compound 49]
> 25 mg/L: MIC (Mtb H37Rv; [1]) | MIC (M. kansasii)
≥ 31.2 mg/L: MIC (M. smegmatis; [8]) | MIC (Mtb H37Ra; [11]) | MIC (M. aurum; [9]) | MIC (M. avium; [10])

Cc1nc2cc(Cl)ccc2c(=O)n1/N=C/c1cccc(Cl)c1 [Compound 50]
≥ 62.5 mg/L: MIC (M. smegmatis; [8]) | MIC (Mtb H37Ra; [11]) | MIC (M. aurum; [9]) | MIC (M. avium; [10])
> 50 mg/L: MIC (Mtb H37Rv; [1]) | MIC (M. kansasii)
